{"source": "patent US20200323860A1", "about": "“METHODS AND MATERIALS FOR TREATING CANCER” (Mayo Foundation for Medical Education and Research, priority 2015, published 2020)", "key": {"[1]": {"test_system": "Parkin phosphorylation at Ser378", "assay": "Parkin Ser378 phosphorylation in cells, IP and immunoblot with pS378 antibody", "format": "cell-based", "method": "FIGS. 9A-9K. Parkin Is Phosphorylated by Plk1 at Ser378 and Activated during Mitosis. (A) Cells were synchronized at the G1/S transition by double-thymidine block, and cells were released. Cell were harvested at indicated times and analyzed by immunobloting. (B) Cells were incubated in the absence or presence of nocodazole or CCCP and subjected to immunoblot analysis with the indicated antibodies. (C) Comparison of the sequences surrounding 5378 of Parkin orthologues (SEQ ID NOS 42-47, respectively, in order of appearance). […] Immunoprecipitates were incubated with or without λ phosphatase (PPase) and were analyzed by immunobloting with pS378 antibody. (E) Cells were infected with the indicated constructs, synchronized by nocodazole, and released. Parkin phosphorylation at pS378 was then examined by immunoblot analysis. (F) Cells were transfected with indicated plasmids, and Parkin phosphorylation at pS378 was examined. (G) In vitro kinase assay of Parkin by Plk1. Parkin phosphorylation was visualized by pS378 Parkin antibody. (H) Cells were transfected with the indicated plasmids, and then treated with nocodazole. Cell lysates were then blotted with the indicated antibodies. (I) in vitro ubiquitination of Cyclin B1, Securin and Nek2A by WT Parkin and mutants (S65A, S65D, S378A and S378D). […] Samples were analyzed by immunobloting with anti-Cyclin B1, Securin and Nek2A antibody. […]"}, "[2]": {"test_system": "Parkin KO MEF tumors in nude mice", "assay": "Mouse xenograft tumor model with Parkin WT or KO MEFs", "format": "in vivo", "details": "tumors with Parkin-deficiency, i.v., 20 mg/kg twice weekly, four cycles", "method": "FIGS. 11A-11H. Parkin Is A Key Mitotic Regulator Functioning as a Tumor Suppressor. (A) Cells were transfected with the indicated plasmids, and mitotic cells were analyzed by immunoblot for the indicated proteins. (B) Schematic of the experiments. (C) A549 cells stably transfected with doxycycline-inducible constructs encoding WT Parkin or mutant Parkin (S378A and S378D) were treated with doxycycline and subjected to IP and immunoblot as indicated (Top), in vivo ubiquitination (Bottom). (D) Athymic nude mice were injected subcutaneously with A549 cells stably-transfected with vector or doxycycline-inducible Parkin constructs (WT, S378A and S378D). […] Tumor growth was measured at the indicated times after injection. n=5 for each group. […] Tumor volumes (mm^3) were measured at the indicated times after injection (Bottom). *, p<0.05, **, p<0.01 and ***, p<0.001 by two-way ANOVA. […]\nFor MEF xenograft experiments, equal numbers (1×10^6 cells) of Parkin WT or KO MEF cells expressing luciferase mixed at a 1:1 dilution with matrigel (Collaborative Research) were implanted in the backs of athymic nude mice. Tumor growth was monitored using calipers and visualized with a bioluminescence-based IVIS system (Caliper LifeScience). […] Tumour growth was measured using a vernier caliper at the indicated times after injection, and the tumor volume was calculated as length×width×height. […]"}, "[3]": {"test_system": "Parkin-deficient lung cancer cell lines", "assay": "Growth inhibition of Parkin-deficient lung cancer cell lines", "format": "cell-based, human", "details": "BI 2536 100 nM or VX-680 50 nM for 72 hours; BI 2536 dose dependent for 3 days (FIG. 13C-13F)", "method": "(§1) FIG. 13A-13F. […] (A and B) Parkin WT and KO MEFs under various condition were analyzed for foci formation assay, number of cell growth, SA-β-gal staining for senescence, colony formation assay. Cells were infected or treated with the indicated constructs or chemical and stained (A, left). Cells were infected with the indicated constructs and stained (B, left). Quantification of (left panel) with stained cell intensity results represent the means (±S.E.) of three independent experiments performed in triplicate (right). *, p<0.05, **, p<0.01 and ***, p<0.001 by one-way ANOVA. […] Quantification of cell numbers results represent the means (±S.E.) of three independent experiments performed in triplicate. ***, p<0.001 by one-way ANOVA.\n(§2) All cell lines were sourced from commercial venders. […] Three normal lung (2 fibroblasts, IMR-90 and WI-38; 1 epithelial cells; BEAS-2B) cells, six NSCLCs (4 adenocarcinoma, H1437, H522, H1650 and A549; 2 large cell carcinoma, H460 and H1299), and one SCLC (H196) cells were maintained in Eagle's minimal essential media (EMEM, Gibco-Invitrogen, Grand Island, N.Y.). The human lung fibroblast IMR-90 and WI-38 cells were obtained from the American Type Culture Collection (ATCC, Manassas, Va.), and cells ranging from 29 to 34 in population doubling level (PDL) were used. […]"}, "[4]": {"test_system": "binding of Parkin to Cdc20", "assay": "Parkin-Cdc20 binding in cells, IP-immunoblot", "format": "cell-based", "details": "cells treated with chemical, with or without nocodazole (FIG. 9J)"}, "Parkin KO MEFs": {"test_system": "Parkin KO MEFs", "assay": "Transformation and escaped senescence of Parkin KO MEFs (foci formation, cell growth, SA-β-gal staining, colony formation)", "format": "cell-based, mouse", "details": "FIG. 13A", "method": "FIG. 13A-13F. Transformed and escape senescence events in Parkin KO MEFs were reversed by expressing WT Parkin or downregulation of Plk1 but not C431S or S378A, related to FIGS. 6. (A and B) Parkin WT and KO MEFs under various condition were analyzed for foci formation assay, number of cell growth, SA-β-gal staining for senescence, colony formation assay. Cells were infected or treated with the indicated constructs or chemical and stained (A, left). Cells were infected with the indicated constructs and stained (B, left). Quantification of (left panel) with stained cell intensity results represent the means (±S.E.) of three independent experiments performed in triplicate (right). *, p<0.05, **, p<0.01 and ***, p<0.001 by one-way ANOVA. […] Quantification of cell numbers results represent the means (±S.E.) of three independent experiments performed in triplicate. ***, p<0.001 by one-way ANOVA.\nFor colony formation or foci assay, early-passage MEFs (passage 5) cells were plated at low density into 60-mm cell culture plates. When sufficient colonies were visible, typically after 2-3 weeks, cells were washed twice in PBS before fixing in ice-cold 70% methanol for 30 minutes, stained by 0.2% Crystal violet for 2-3 hours. The following day cells were rinsed in PBS and air-dried. […]"}, "[5]": {"test_system": "Parkin WT or KO MEF cells", "assay": "Sensitivity of Parkin WT or KO MEF cells to BI […], crystal violet staining", "format": "cell-based, mouse", "details": "FIG. 11F", "protocol": "(A) Cells were transfected with the indicated plasmids, and mitotic cells were analyzed by immunoblot for the indicated proteins. […] (C) A549 cells stably transfected with doxycycline-inducible constructs encoding WT Parkin or mutant Parkin (S378A and S378D) were treated with doxycycline and subjected to IP and immunoblot as indicated (Top), in vivo ubiquitination (Bottom). (D) Athymic nude mice were injected subcutaneously with A549 cells stably-transfected with vector or doxycycline-inducible Parkin constructs (WT, S378A and S378D). Two days after injection, doxycycline was administered in drinking water. Tumor growth was measured at the indicated times after injection. n=5 for each group. […] Tumor volumes (mm^3) were measured at the indicated times after injection (Bottom). *, p<0.05, **, p<0.01 and ***, p<0.001 by two-way ANOVA. (E) Cells were infected with the indicated constructs and were collected for FACS analysis. […] Results represent the means (±S.E.) of three experiments performed in triplicate. *, p<0.05 and ***, p<0.001 versus Parkin WT MEFs by one-way ANOVA (Right). […] Mean transformed MEFs volumes for Parkin KO are shown. ***, p<0.001 and ****, p<0.0001 versus Parkin WT MEFs by two-way ANOVA.\nFor colony formation or foci assay, early-passage MEFs (passage 5) cells were plated at low density into 60-mm cell culture plates. […]"}, "[6]": {"test_system": "lung normal fibroblast (WI-38 and IMR 90 cells)", "assay": "Growth inhibition of normal lung fibroblasts", "format": "cell-based, human", "details": "WI-38 and IMR 90 cells (FIG. 13E and 13F)", "method": "as §1, §2"}}, "data": [{"smiles": "N#CC(C#N)=NNc1cccc(Cl)c1", "note": "[CCCP, carbonyl cyanide m-chlorophenylhydrazone]", "values": [{"measurement": "Ser 378 phosphorylation of Parkin", "setting": "[1]; cells incubated with CCCP (FIG. 9B)", "value": "did not affect Ser 378 phosphorylation"}]}, {"smiles": "CC[C@@H]1C(=O)N(C)c2cnc(Nc3ccc(C(=O)NC4CCN(C)CC4)cc3OC)nc2N1C1CCCC1", "note": "[BI 2536, (R)-4-(8-cyclopentyl-7-ethyl-5-methyl-6-oxo-5,6,7,8-tetrahydropteridin-2-ylamino)-3-methoxy-N-(1-methylpiperidin-4-yl)benzamide]", "values": [{"measurement": "tumor inhibition in vivo", "setting": "[2]", "value": "excellent tumor inhibition"}, {"measurement": "sensitivity (growth inhibition) of Parkin-deficient lung cancer cell lines", "setting": "[3]", "value": "significantly sensitive"}, {"measurement": "binding of Parkin to Cdc20", "setting": "[4]", "value": "decreased binding of Parkin to Cdc20"}, {"measurement": "escaped senescence and transformation induced by Parkin depletion", "setting": "Parkin KO MEFs", "value": "transformation was abolished"}, {"measurement": "transformation of Parkin KO MEFs", "setting": "[5]", "value": "inhibited transformation of Parkin KO MEFs"}, {"measurement": "Parkin phosphorylation at Ser378", "setting": "[1]; nocodazole-arrested mitotic cells, with Plk1 inhibitor (FIG. 9D)", "value": "blocked Parkin phosphorylation at Ser378"}, {"measurement": "sensitivity (growth inhibition) of lung normal fibroblasts", "setting": "[6]", "value": "but not lung normal fibroblasts"}]}, {"smiles": "Cc1cc(Nc2cc(N3CCN(C)CC3)nc(Sc3ccc(NC(=O)C4CC4)cc3)n2)n[nH]1", "note": "[VX 680, N-(4-(4-(5-methyl-1H-pyrazol-3-ylamino)-6-(4-methylpiperazin-1-yl)pyrimidin-2-ylthio)phenyl)-cyclopropanecarboxamide]", "values": [{"measurement": "sensitivity (growth inhibition) of Parkin-deficient lung cancer cell lines", "setting": "[3]", "value": "significantly sensitive"}, {"measurement": "sensitivity (growth inhibition) of lung normal fibroblasts", "setting": "[6]", "value": "but not lung normal fibroblasts"}]}]}
